Results: ChEMBL document CHEMBL1201862, “PubChem BioAssay data set” (2004)
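How tested: cells in 96-well plates exposed to compound for 48 hours at five concentrations. Abbreviation: GI50, concentration required for 50% inhibition of growth.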 The source made the active and inactive calls. Cut-off read from the data, not from the text of the source: active = GI50 up to about 1.1 µM and inactive = higher.

Key:
Test in all cases: NCI anticancer screen, dose series, 48 h
OVCAR-5 = tested on: OVCAR-5
TK-10 = tested on: TK-10
786-0 = tested on: 786-0
SK-OV-3 = tested on: SK-OV-3
U-251 = tested on: U-251
EKVX = tested on: EKVX
ACHN = tested on: ACHN
CAKI-1 = tested on: CAKI-1
RPMI-8226 = tested on: RPMI-8226
IGROV-1 = tested on: IGROV-1
SK-MEL-5 = tested on: SK-MEL-5
KM12 = tested on: KM12
HCC 2998 = tested on: HCC 2998
SNB-19 = tested on: SNB-19
A549 = tested on: A549
HOP-62 = tested on: HOP-62
OVCAR-8 = tested on: OVCAR-8
SF-539 = tested on: SF-539
HL-60 = tested on: HL-60
SF-295 = tested on: SF-295

Measured: GI50

O=C1Nc2ccccc2C1Cc1ccccc1 (centres undefined)
inactive: OVCAR-5 > 100 µM | TK-10 > 100 µM | 786-0 > 100 µM | SK-OV-3 > 100 µM | U-251 > 100 µM | EKVX 56.1 µM | ACHN > 100 µM | CAKI-1 > 100 µM | RPMI-8226 > 100 µM | IGROV-1 > 100 µM | SK-MEL-5 43.6 µM | KM12 > 100 µM | HCC 2998 > 100 µM | SNB-19 > 100 µM | A549 > 100 µM | HOP-62 > 100 µM | OVCAR-8 > 100 µM | SF-539 > 100 µM | HL-60 > 100 µM

CC1=C(C(=O)CC(=O)C(=O)Nc2ccccc2C(F)(F)F)Sc2ccccc2N1
inactive: OVCAR-5 > 100 µM | TK-10 > 100 µM | 786-0 > 100 µM | SK-OV-3 > 100 µM | U-251 64.9 µM | EKVX 64.7 µM | SF-295 47.4 µM | ACHN 73.3 µM | CAKI-1 53.2 µM | RPMI-8226 60 µM | IGROV-1 44 µM | SK-MEL-5 37.3 µM | KM12 39.1 µM | HCC 2998 41.1 µM | SNB-19 35.1 µM | A549 51.1 µM | HOP-62 33.9 µM | OVCAR-8 50 µM | SF-539 31.2 µM | HL-60 35.4 µM

COc1ccc2oc(=O)c(-c3csc(C)n3)cc2c1
inactive: OVCAR-5 > 100 µM | TK-10 26 µM | 786-0 54.2 µM | SK-OV-3 28.1 µM | U-251 23 µM | EKVX 56.5 µM | SF-295 18.6 µM | ACHN 44.4 µM | CAKI-1 > 100 µM | RPMI-8226 > 100 µM | IGROV-1 49.4 µM | SK-MEL-5 > 100 µM | KM12 > 100 µM | HCC 2998 > 100 µM | SNB-19 28.8 µM | A549 > 100 µM | HOP-62 31 µM | SF-539 22.2 µM | HL-60 > 100 µM

CCOC(=O)/C=C/C1=C(Br)[C@@]2(C)CC[C@@H]3c4ccc(O)cc4CC[C@H]3[C@@H]2C1
inactive: OVCAR-5 15.2 µM | TK-10 17.9 µM | 786-0 12.8 µM | SK-OV-3 15.4 µM | U-251 16.6 µM | EKVX 17.1 µM | SF-295 15.8 µM | ACHN 15.7 µM | CAKI-1 16.4 µM | RPMI-8226 2.17 µM | IGROV-1 12.2 µM | SK-MEL-5 13.6 µM | KM12 16.2 µM | HCC 2998 14.8 µM | SNB-19 16.6 µM | A549 16.9 µM | HOP-62 14.4 µM | SF-539 17 µM | HL-60 17.9 µM

COc1ccc(/C=C2/CCS(=O)(=O)c3ccc(C)cc3C2=O)cc1OC
inactive: OVCAR-5 27.5 µM | TK-10 13.6 µM | 786-0 11.4 µM | SK-OV-3 21.6 µM | U-251 12.8 µM | EKVX 13.7 µM | SF-295 14.7 µM | ACHN 12.9 µM | CAKI-1 17.2 µM | RPMI-8226 11.7 µM | IGROV-1 6.4 µM | KM12 11 µM | HCC 2998 6.47 µM | SNB-19 14.1 µM | A549 25.9 µM | HOP-62 28.9 µM | OVCAR-8 12.3 µM | SF-539 14.6 µM | HL-60 10.4 µM

O=c1c2cc(Br)cc(Br)c2nc(CCCl)n1CCO
inactive: OVCAR-5 > 100 µM | TK-10 > 100 µM | 786-0 > 100 µM | SK-OV-3 58.7 µM | U-251 67.1 µM | EKVX 73.8 µM | SF-295 88.3 µM | ACHN 60.7 µM | CAKI-1 91 µM | RPMI-8226 34.8 µM | IGROV-1 75.9 µM | SK-MEL-5 53.2 µM | KM12 > 100 µM | HCC 2998 > 100 µM | A549 > 100 µM | HOP-62 > 100 µM | OVCAR-8 > 100 µM | SF-539 81.3 µM | HL-60 37.8 µM

Cc1cn(C2CC(N)C(C(=O)O)O2)c(=O)[nH]c1=O (centres undefined)
inactive: OVCAR-5 > 100 µM | TK-10 > 100 µM | 786-0 > 100 µM | SK-OV-3 > 100 µM | U-251 > 100 µM | EKVX > 100 µM | ACHN > 100 µM | CAKI-1 > 100 µM | RPMI-8226 > 100 µM | IGROV-1 > 100 µM | SK-MEL-5 > 100 µM | KM12 > 100 µM | HCC 2998 > 100 µM | SNB-19 > 100 µM | A549 > 100 µM | HOP-62 > 100 µM | OVCAR-8 > 100 µM | SF-539 > 100 µM | HL-60 > 100 µM
